Source: paper PMC10412865 (Current Research in Toxicology, 2023)
Counter-ions that a name gives are not always drawn. Like-named read-outs stand apart in the source and are kept apart here.

Key:
[1] = tested on: CYP1A2 activity in HepaRG cells; experiment: CYP1A2 enzyme activity in differentiated HepaRG monolayers; format: cell-based, human; details: HepaRG, 48 h
[2] = tested on: CYP3A4 activity in HepaRG cells; details: 48 h
[3] = target: T1, human recombinant CYP1A2 (Homo sapiens, UniProt P05177); experiment: Human recombinant CYP1A2 Supersome inhibition assay; format: biochemical
T1 sequence (P05177 1-516): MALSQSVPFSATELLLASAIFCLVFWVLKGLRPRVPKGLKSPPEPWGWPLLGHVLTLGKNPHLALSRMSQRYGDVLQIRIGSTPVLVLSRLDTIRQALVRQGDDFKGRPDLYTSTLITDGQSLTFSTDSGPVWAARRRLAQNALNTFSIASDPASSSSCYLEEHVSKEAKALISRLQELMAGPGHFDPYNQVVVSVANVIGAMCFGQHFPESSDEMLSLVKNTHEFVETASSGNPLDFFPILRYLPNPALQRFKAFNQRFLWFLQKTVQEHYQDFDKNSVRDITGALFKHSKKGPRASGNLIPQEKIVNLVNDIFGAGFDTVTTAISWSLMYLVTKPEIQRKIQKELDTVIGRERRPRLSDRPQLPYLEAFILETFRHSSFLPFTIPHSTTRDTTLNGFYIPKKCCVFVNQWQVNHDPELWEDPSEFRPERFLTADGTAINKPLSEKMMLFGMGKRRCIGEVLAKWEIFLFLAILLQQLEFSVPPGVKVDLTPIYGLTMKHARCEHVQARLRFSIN

[4] = target: T2, human recombinant CYP2B6 (Homo sapiens, UniProt P20813); experiment: Human recombinant CYP2B6 Supersome inhibition assay; format: biochemical
T2 sequence (P20813 1-491): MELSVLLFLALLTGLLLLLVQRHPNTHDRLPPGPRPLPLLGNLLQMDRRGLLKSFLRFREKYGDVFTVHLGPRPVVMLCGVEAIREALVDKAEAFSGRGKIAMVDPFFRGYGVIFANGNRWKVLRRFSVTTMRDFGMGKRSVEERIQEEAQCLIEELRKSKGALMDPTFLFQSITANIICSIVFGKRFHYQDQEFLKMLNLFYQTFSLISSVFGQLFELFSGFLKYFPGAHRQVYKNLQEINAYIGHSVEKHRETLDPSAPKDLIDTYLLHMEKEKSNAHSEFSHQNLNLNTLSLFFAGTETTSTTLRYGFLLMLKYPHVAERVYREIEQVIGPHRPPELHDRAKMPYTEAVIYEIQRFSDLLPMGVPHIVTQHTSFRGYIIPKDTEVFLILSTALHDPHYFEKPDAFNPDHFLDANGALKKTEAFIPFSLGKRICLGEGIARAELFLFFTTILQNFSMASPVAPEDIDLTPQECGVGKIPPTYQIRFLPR

[5] = target: human recombinant CYP2C19 (Homo sapiens, UniProt P33261); experiment: Human recombinant CYP2C19 Supersome inhibition assay; format: biochemical
Chain of human recombinant CYP2C19 (P33261 whole entry): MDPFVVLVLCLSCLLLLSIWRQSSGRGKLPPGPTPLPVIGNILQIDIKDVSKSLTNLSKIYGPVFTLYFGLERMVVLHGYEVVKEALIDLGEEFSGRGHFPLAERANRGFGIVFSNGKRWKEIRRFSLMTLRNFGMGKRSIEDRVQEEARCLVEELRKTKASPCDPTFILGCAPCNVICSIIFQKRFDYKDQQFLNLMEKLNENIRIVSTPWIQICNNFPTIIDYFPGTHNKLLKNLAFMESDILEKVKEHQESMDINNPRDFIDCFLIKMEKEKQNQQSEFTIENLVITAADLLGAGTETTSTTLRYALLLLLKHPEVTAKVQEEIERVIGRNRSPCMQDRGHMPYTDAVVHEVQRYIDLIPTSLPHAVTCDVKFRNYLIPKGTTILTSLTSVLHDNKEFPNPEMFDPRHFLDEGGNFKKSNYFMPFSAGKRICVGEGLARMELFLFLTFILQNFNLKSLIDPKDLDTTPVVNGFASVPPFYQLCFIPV

[6] = target: human recombinant CYP2E1 (Homo sapiens, UniProt P05181); experiment: Human recombinant CYP2E1 Supersome inhibition assay; format: biochemical
Chain of human recombinant CYP2E1 (P05181 whole entry): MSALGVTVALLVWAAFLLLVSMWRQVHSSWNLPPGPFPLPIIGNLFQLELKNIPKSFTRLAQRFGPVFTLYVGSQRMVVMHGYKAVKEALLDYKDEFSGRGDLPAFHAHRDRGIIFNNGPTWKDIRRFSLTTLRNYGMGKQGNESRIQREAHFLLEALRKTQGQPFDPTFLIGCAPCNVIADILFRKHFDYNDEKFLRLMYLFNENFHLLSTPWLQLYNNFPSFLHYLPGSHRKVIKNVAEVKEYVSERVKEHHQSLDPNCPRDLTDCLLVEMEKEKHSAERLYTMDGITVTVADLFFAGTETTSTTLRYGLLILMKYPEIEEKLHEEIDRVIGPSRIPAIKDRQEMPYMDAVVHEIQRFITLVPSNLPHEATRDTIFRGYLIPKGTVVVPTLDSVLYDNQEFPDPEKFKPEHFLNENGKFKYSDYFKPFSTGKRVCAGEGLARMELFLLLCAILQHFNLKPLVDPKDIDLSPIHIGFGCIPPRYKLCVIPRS

[7] = target: human recombinant CYP3A4 (Homo sapiens, UniProt P08684); experiment: Human recombinant CYP3A4 Supersome inhibition assay; format: biochemical
Chain of human recombinant CYP3A4 (P08684 whole entry): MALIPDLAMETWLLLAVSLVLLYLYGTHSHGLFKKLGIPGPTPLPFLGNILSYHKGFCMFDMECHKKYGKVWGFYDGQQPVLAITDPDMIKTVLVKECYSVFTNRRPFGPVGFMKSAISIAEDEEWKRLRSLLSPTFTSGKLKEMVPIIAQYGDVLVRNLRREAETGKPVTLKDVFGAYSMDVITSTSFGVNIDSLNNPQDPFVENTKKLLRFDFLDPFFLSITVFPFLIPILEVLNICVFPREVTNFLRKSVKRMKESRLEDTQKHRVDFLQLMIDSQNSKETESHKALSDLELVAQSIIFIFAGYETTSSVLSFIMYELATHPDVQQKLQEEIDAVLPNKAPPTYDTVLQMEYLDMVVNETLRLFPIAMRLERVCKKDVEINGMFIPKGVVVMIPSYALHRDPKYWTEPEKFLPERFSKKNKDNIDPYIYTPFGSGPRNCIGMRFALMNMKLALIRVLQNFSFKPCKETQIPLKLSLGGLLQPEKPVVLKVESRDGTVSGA

[8] = tested on: CYP1A2; experiment: CYP1A2 enzyme activity in differentiated HepaRG monolayers; format: cell-based, human; details: human, differentiated HepaRG cell monolayers, probe luciferin-1A2 (6 µM)
[9] = humans, estimated average; ref Olsen et al. 2007; cited from earlier work
[10] = 1 nM PFAS in binary mixture with 10 µM BaP
[11] = 1 µM PFAS in binary mixture with 10 µM BaP
[12] = 1 nM PFAS in binary mixture with 10 µM rifampicin
[13] = 1 µM PFAS in binary mixture with 10 µM rifampicin

## OCCC(F)(F)C(F)(F)C(F)(F)C(F)(F)C(F)(F)C(F)(F)F [6:2 FTOH, 6:2 Fluorotelomer alcohol]
[1]; 1 nM PFAS alone
  CYP1A2 activity (% of the solvent control): 168.4%
[1]; [10]
  CYP1A2 activity (% of the solvent control): lower
[1]; 1 µM PFAS alone
  CYP1A2 activity (% of the solvent control): 148.4%
[1]; [11]
  CYP1A2 activity (% of the solvent control): lower
[2]; 1 nM PFAS alone
  CYP3A4 activity (% of the solvent control): no statistically significant differences
[2]; [12]
  CYP3A4 activity (% of the solvent control): not statistically different from the inducer nor the solvent control
[2]; 1 µM PFAS alone
  CYP3A4 activity (% of the solvent control): no statistically significant differences
[2]; [13]
  CYP3A4 activity (% of the solvent control): not statistically different from the inducer nor the solvent control

## O=C(O)C(F)(OC(F)(F)C(F)(F)C(F)(F)F)C(F)(F)F (centres unmarked) [HFPO-DA, Undecafluoro-2-methyl-3-oxahexanoic acid]
[1]; 1 nM PFAS alone
  CYP1A2 activity (% of the solvent control): neither concentration of HFPO-DA nor PFHxS had a significant effect
[1]; [10]
  CYP1A2 activity (% of the solvent control): decreased activity
[1]; 1 µM PFAS alone
  CYP1A2 activity (% of the solvent control): neither concentration of HFPO-DA nor PFHxS had a significant effect
[1]; [11]
  CYP1A2 activity (% of the solvent control): decreased activity
[2]; [12]
  CYP3A4 activity (% of the solvent control): did not influence the CYP3A4 activity
[2]; [13]
  CYP3A4 activity (% of the solvent control): did not influence the CYP3A4 activity

## O=S(=O)(O)C(F)(F)C(F)(F)C(F)(F)C(F)(F)F [PFBS, Perfluorobutanesulfonic acid]
[1]; 1 nM PFAS alone
  CYP1A2 activity (% of the solvent control): 205.4%
[1]; [10]
  CYP1A2 activity (% of the solvent control): 130.9%
[1]; 1 µM PFAS alone
  CYP1A2 activity (% of the solvent control): 204.4%
[1]; [11]
  CYP1A2 activity (% of the solvent control): 128.5%
[2]; [12]
  CYP3A4 activity (% of the solvent control): concentration-dependent decrease

## O=C(O)C(F)(F)C(F)(F)C(F)(F)C(F)(F)C(F)(F)F [PFHxA, Perfluorohexanoic acid]
[1]; 1 nM PFAS alone
  CYP1A2 activity (% of the solvent control): increased CYP1A2 activity
[1]; [10]
  CYP1A2 activity (% of the solvent control): no significant differences
[1]; 1 µM PFAS alone
  CYP1A2 activity (% of the solvent control): increased CYP1A2 activity
[1]; [11]
  CYP1A2 activity (% of the solvent control): no significant differences
[2]; [13]
  CYP3A4 activity (% of the solvent control): not in those exposed to the higher (1 µM) concentrations

## O=S(=O)(O)C(F)(F)C(F)(F)C(F)(F)C(F)(F)C(F)(F)C(F)(F)F [PFHxS, Perfluorohexanesulfonic acid potassium salt]
[3]
  IC50: 13.8 µM
[4]
  IC50: > 100 µM
[5]
  IC50: 51.6 µM
[6]
  IC50: > 100 µM
[7]
  IC50: > 100 µM
[1]; 1 nM PFAS alone
  CYP1A2 activity (% of the solvent control): no significant differences
[1]; 1 µM PFAS alone
  CYP1A2 activity (% of the solvent control): no significant differences
[8]
  activity at 48 h, 1 nM: 80.2%
  activity at 48 h, 1 µM: 122%
[2]; [12]
  CYP3A4 activity (% of the solvent control): significantly lower relative to rifampicin alone
[2]; [13]
  CYP3A4 activity (% of the solvent control): significantly lower relative to rifampicin alone

## O=C(O)C(F)(F)C(F)(F)C(F)(F)C(F)(F)C(F)(F)C(F)(F)C(F)(F)F [PFOA, Perfluorooctanoic acid]
[3]
  IC50: > 100 µM
[4]
  IC50: 96.9 µM
[5]
  IC50: > 100 µM
[6]
  IC50: > 100 µM
[7]
  IC50: > 100 µM
[9]
  half-life of serum elimination: 3.5 years
